This is an account of results in patent US12421249B2, “Inhibitors of APOL1 and methods of using same” (Vertex Pharmaceuticals Incorporated, priority 2020, dated 2025).

SMILES strings stand for the structures.

This assay addresses T1, APOL1 (Homo sapiens, UniProt O14791).
T1 sequence (O14791 1-398 S342G/I384M): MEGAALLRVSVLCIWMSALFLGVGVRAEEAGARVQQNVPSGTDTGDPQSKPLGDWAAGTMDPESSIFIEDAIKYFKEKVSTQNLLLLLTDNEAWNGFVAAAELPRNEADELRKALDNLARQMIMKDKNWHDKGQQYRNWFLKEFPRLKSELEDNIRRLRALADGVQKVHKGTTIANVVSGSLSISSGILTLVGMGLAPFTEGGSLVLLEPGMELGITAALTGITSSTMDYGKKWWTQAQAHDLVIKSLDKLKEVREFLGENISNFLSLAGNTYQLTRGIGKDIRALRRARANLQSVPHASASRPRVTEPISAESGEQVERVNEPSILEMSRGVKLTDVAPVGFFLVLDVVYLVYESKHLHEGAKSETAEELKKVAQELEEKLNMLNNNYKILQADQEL
Briefly: Multi-Tox Assay (MultiTox-Fluor Multiplex Cytotoxicity Assay in tet-inducible APOL1 T-REx-HEK293 cells; Table 46 does not say which APOL1 variant G0/G1/G2). It counts as cell-based. The note with it: APOL1 variant not given; for IC50: IP50 = IC50 for cell proliferation.

Take `Cc1cc(Cn2cc([C@@H]3C[C@]4(C[C@H](C)N3)OC[C@@H](O)c3cc(Cl)sc34)nn2)ccn1` [Compound 296]: the “Multi-Tox Assay Max Activity (%)” value worked out at 99.0% and the IC50 (as a rule, the midpoint of a concentration-inhibition curve) fell in the range of 50 to 500 nM.
In the same order, the values of `Cc1nc(Cn2cc([C@@H]3C[C@]4(C[C@H](C)N3)OC[C@@H](O)c3cc(Cl)sc34)nn2)oc1C` [Compound 297] are 99.0% and less than 50 nM.
Take `C[C@H]1C[C@@]2(C[C@@H](c3cn(Cc4ncc(F)cc4F)nn3)N1)OC[C@@H](O)c1cc(Cl)sc12` [Compound 298]: the “Multi-Tox Assay Max Activity (%)” value is reported as 95.0% and the IC50 is 50 to 500 nM.
As to `C[C@@H](CO)CCn1cc([C@@H]2C[C@]3(C[C@H](C)N2)OC[C@@H](O)c2cc(Cl)sc23)nn1` [Compound 299], the IC90 (usually the concentration at which the effect reaches the 90% level) was 50 to 500 nM, the “Multi-Tox Assay Max Activity (%)” value is given as 99.0% and the 50% inhibitory concentration (IC50) is less than 50 nM.
Regarding `C[C@H]1C[C@@]2(C[C@@H](c3cn(C[C@H](O)CO)nn3)N1)OC[C@@H](O)c1cc(Cl)sc12` [Compound 300], the IC90 was in the range of 50 to 500 nM, the “Multi-Tox Assay Max Activity (%)” value was 100.0% and the IC50 fell in the range of 50 to 500 nM.
`C[C@H]1C[C@@]2(C[C@@H](c3cn(CCOc4ccccc4F)nn3)N1)OC[C@@H](O)c1cc(Cl)sc12` [Compound 301]: the “Multi-Tox Assay Max Activity (%)” value turned out to be 99.0% and the IC50 was less than 50 nM.
Regarding `C[C@H]1C[C@@]2(C[C@@H](c3cn(Cc4ccc(O)cc4)nn3)N1)OCC(F)(F)c1cc(Cl)sc12` [Compound 302], the “Multi-Tox Assay Max Activity (%)” value is 94.0% and the 50% inhibitory concentration (IC50) was 50 to 500 nM.
In the same order, the values of `Cc1cccc(OCC(O)Cn2cc([C@@H]3C[C@]4(C[C@H](C)N3)OCC(F)(F)c3cc(Cl)sc34)nn2)c1` (stereo partly drawn) [Compound 303] are 99.0% and 50 to 500 nM.
In the case of `Cc1ccccc1C(O)Cn1cc([C@@H]2C[C@]3(C[C@H](C)N2)OCC(F)(F)c2cc(Cl)sc23)nn1` (stereo partly drawn) [Compound 304], the “Multi-Tox Assay Max Activity (%)” value is 99.0% and the IC50 lay in the range of 50 to 500 nM.
Consider `C[C@H]1C[C@@]2(C[C@@H](c3cn(CCc4ccncn4)nn3)N1)OCC(F)(F)c1cc(Cl)sc12` [Compound 305], for which the “Multi-Tox Assay Max Activity (%)” value is reported as 100.0% and the IC50 is less than 50 nM.
The corresponding values for `CC(CO)CCn1cc([C@@H]2C[C@]3(C[C@H](C)N2)OCC(F)(F)c2cc(Cl)sc23)nn1` (stereo partly drawn) [Compound 306] are 99.0% and more than 500 nM.
In the case of `C[C@H]1C[C@@]2(C[C@@H](c3cn(CC4CCS(=O)(=O)C4)nn3)N1)OCC(F)(F)c1cc(Cl)sc12` (stereo partly drawn) [Compound 307], the “Multi-Tox Assay Max Activity (%)” value was 99.0% and the IC50 is less than 50 nM.
In the case of `C[C@H]1C[C@@]2(C[C@@H](c3cn(Cc4ccc(OC5CCOCC5)cc4)nn3)N1)OCC(F)(F)c1cc(Cl)sc12` [Compound 308], the “Multi-Tox Assay Max Activity (%)” value came out at 95.0% and the IC50 was in the range of 50 to 500 nM.
The corresponding values for `C[C@H]1C[C@@]2(C[C@@H](c3cn(CC4CCOCC4)nn3)N1)OCC(F)(F)c1cc(Cl)sc12` [Compound 309] are 97.0% and 50 to 500 nM.
Consider `C[C@H]1C[C@@]2(C[C@@H](c3cn(Cc4cccc5c4OCCO5)nn3)N1)OCC(F)(F)c1cc(Cl)sc12` [Compound 310], for which the “Multi-Tox Assay Max Activity (%)” value was found to be 94.0% and the IC50 was 50 to 500 nM.
In the same order, the values of `C[C@H]1C[C@@]2(C[C@@H](c3cn(CC4CCOC4)nn3)N1)OCC(F)(F)c1cc(Cl)sc12` (stereo partly drawn) [Compound 311] are 99.0% and less than 50 nM.
Regarding `COCC1(Cn2cc([C@@H]3C[C@]4(C[C@H](C)N3)OCC(F)(F)c3cc(Cl)sc34)nn2)CC1` [Compound 312], the IC90 is more than 500 nM, the “Multi-Tox Assay Max Activity (%)” value is on record as 91.0% and the IC50 was more than 500 nM.
For the molecule `C[C@H]1C[C@@]2(C[C@@H](c3cn(Cc4cccc(CO)c4)nn3)N1)OCC(F)(F)c1cc(Cl)sc12` [Compound 313], the “Multi-Tox Assay Max Activity (%)” value came out at 98.0% and the IC50 was in the range of 50 to 500 nM.
In the same order, the values of `C[C@H]1C[C@@]2(C[C@@H](c3cn(CCC4CCCOC4)nn3)N1)OCC(F)(F)c1cc(Cl)sc12` (stereo partly drawn) [Compound 314] are 99.0% and less than 50 nM.
As for `Cc1ccnn1CCn1cc([C@@H]2C[C@]3(C[C@H](C)N2)OCC(F)(F)c2cc(Cl)sc23)nn1` [Compound 315], the “Multi-Tox Assay Max Activity (%)” value is given as 98.0% and the IC50 was 50 to 500 nM.
The corresponding values for `C[C@H]1C[C@@]2(C[C@@H](c3cn(Cc4ccc(O)nc4)nn3)N1)OCC(F)(F)c1cc(Cl)sc12` [Compound 316] are 95.0% and 50 to 500 nM.
For `C[C@H]1C[C@@]2(C[C@@H](c3cn(Cc4cnccn4)nn3)N1)OCC(F)(F)c1cc(Cl)sc12` [Compound 317], the “Multi-Tox Assay Max Activity (%)” value was determined as 98.0% and the IC50 lay within 50 to 500 nM.
As for `Cc1ncc(Cn2cc([C@@H]3C[C@]4(C[C@H](C)N3)OCC(F)(F)c3cc(Cl)sc34)nn2)cn1` [Compound 318], the “Multi-Tox Assay Max Activity (%)” value is given as 99.0% and the IC50 is less than 50 nM.
The corresponding values for `COc1cccc(Cn2cc([C@@H]3C[C@]4(C[C@H](C)N3)OCC(F)(F)c3cc(Cl)sc34)nn2)c1` [Compound 319] are 95.0% and 50 to 500 nM.
As for `C[C@H]1C[C@@]2(C[C@@H](c3cn(Cc4cccc(O)c4)nn3)N1)OCC(F)(F)c1cc(Cl)sc12` [Compound 320], the “Multi-Tox Assay Max Activity (%)” value is 95.0% and the IC50 lay within 50 to 500 nM.
The corresponding values for `C[C@H]1C[C@@]2(C[C@@H](c3cn(Cc4cccnn4)nn3)N1)OCC(F)(F)c1cc(Cl)sc12` [Compound 321] are 99.0% and less than 50 nM.
In the same order, the values of `C[C@H]1C[C@@]2(C[C@@H](c3cn(CC(O)c4ccccc4)nn3)N1)OCC(F)(F)c1cc(Cl)sc12` (stereo partly drawn) [Compound 322] are 97.0% and 50 to 500 nM.
The corresponding values for `COCCn1cc([C@@H]2C[C@]3(C[C@H](C)N2)OCC(F)(F)c2cc(Cl)sc23)nn1` [Compound 323] are 100.0% and less than 50 nM.
As for `C[C@H]1C[C@@]2(C[C@@H](c3cn(CC(F)F)nn3)N1)OCC(F)(F)c1cc(Cl)sc12` [Compound 324], the “Multi-Tox Assay Max Activity (%)” value was 96.0% and the IC50 lay in the range of 50 to 500 nM.
The corresponding values for `CCC(O)Cn1cc([C@@H]2C[C@]3(C[C@H](C)N2)OCC(F)(F)c2cc(Cl)sc23)nn1` (stereo partly drawn) [Compound 325] are 98.0% and less than 50 nM.
As to `Cc1c(Cn2cc([C@@H]3C[C@]4(C[C@H](C)N3)OCC(F)(F)c3cc(Cl)sc34)nn2)cnn1C` [Compound 326], the “Multi-Tox Assay Max Activity (%)” value is 97.0% and the IC50 lay in the range of 50 to 500 nM.
Regarding `CC(C)N1CC(Cn2cc([C@@H]3C[C@]4(C[C@H](C)N3)OCC(F)(F)c3cc(Cl)sc34)nn2)CC1=O` (stereo partly drawn) [Compound 327], the “Multi-Tox Assay Max Activity (%)” value was determined as 98.0% and the IC50 was less than 50 nM.
The corresponding values for `C[C@H]1C[C@@]2(C[C@@H](c3cn(CCC(N)=O)nn3)N1)OCC(F)(F)c1cc(Cl)sc12` [Compound 328] are 100.0% and less than 50 nM.
`C[C@H]1C[C@@]2(C[C@@H](c3cn(CC4(F)CCOCC4)nn3)N1)OCC(F)(F)c1cc(Cl)sc12` [Compound 329] gave an IC50 of more than 500 nM.
For the molecule `CCn1cc(Cn2cc([C@@H]3C[C@]4(C[C@H](C)N3)OCC(F)(F)c3cc(Cl)sc34)nn2)cn1` [Compound 330], the “Multi-Tox Assay Max Activity (%)” value amounted to 99.0% and the IC50 is less than 50 nM.
As to `C[C@H]1C[C@@]2(C[C@@H](c3cn(Cc4cocn4)nn3)N1)OCC(F)(F)c1cc(Cl)sc12` [Compound 331], the “Multi-Tox Assay Max Activity (%)” value came to 98.0% and the IC50 is less than 50 nM.
In the same order, the values of `C[C@H]1C[C@@]2(C[C@@H](c3cn(Cc4ccccn4)nn3)N1)OCC(F)(F)c1cc(Cl)sc12` [Compound 332] are 96.0% and 50 to 500 nM.
Turning to `COc1cc(F)cc(Cn2cc([C@@H]3C[C@]4(C[C@H](C)N3)OCC(F)(F)c3cc(Cl)sc34)nn2)c1` [Compound 333], the “Multi-Tox Assay Max Activity (%)” value was found to be 97.0% and the IC50 lay in the range of 50 to 500 nM.
In the same order, the values of `Cc1ccc(Cn2cc([C@@H]3C[C@]4(C[C@H](C)N3)OCC(F)(F)c3cc(Cl)sc34)nn2)nc1` [Compound 334] are 96.0% and 50 to 500 nM.
In the same order, the values of `COc1ccc(Cn2cc([C@@H]3C[C@]4(C[C@H](C)N3)OCC(F)(F)c3cc(Cl)sc34)nn2)cc1` [Compound 335] are 96.0% and 50 to 500 nM.
In the same order, the values of `Cc1cc(Cn2cc([C@@H]3C[C@]4(C[C@H](C)N3)OCC(F)(F)c3cc(Cl)sc34)nn2)ccn1` [Compound 336] are 99.0% and less than 50 nM.
Regarding `Cc1nc(Cn2cc([C@@H]3C[C@]4(C[C@H](C)N3)OCC(F)(F)c3cc(Cl)sc34)nn2)oc1C` [Compound 337], the “Multi-Tox Assay Max Activity (%)” value is reported as 99.0% and the IC50 was less than 50 nM.
As to `Cc1nnc(Cn2cc([C@@H]3C[C@]4(C[C@H](C)N3)OCC(F)(F)c3cc(Cl)sc34)nn2)[nH]1` [Compound 339], the “Multi-Tox Assay Max Activity (%)” value is 97.0% and the IC50 lay in the range of 50 to 500 nM.
The corresponding values for `COCCOCCn1cc([C@@H]2C[C@]3(C[C@H](C)N2)OCC(F)(F)c2cc(Cl)sc23)nn1` [Compound 340] are 98.0% and 50 to 500 nM.
